From patent EP0945138A1, “Transfection particles” (Université Louis Pasteur de Strasbourg, priority 1997, dated 1999)

Columns and labels:
Assay type in all cases: physicochemical
[1] = Determination of the critical micelle concentration (c.m.c.) with a Langmuir balance, without DNA; details: for CMC / CMC without DNA: MES buffer 20 mM pH 6 containing 10 mM DTT; for c.m.c.: n-alkyl esters of cysteine by chain length, Langmuir balance, 20 mM MES buffer, pH 6
Protocol: Clean monomolecular DNA collapse is generally expected only for detergent concentrations below the critical micelle concentration (c.m.c.). Several n-alkyl esters of cysteine were synthesized by DMAP-catalyzed dicyclohexylcarbodiimide (DCC) dehydration and their c.m.c.'s were determined with a Langmuir balance (20 mM MES buffer, pH 6), providing the following results (n-alkyl chain length / c.m.c.): dodecane / 15 µM; undecane / 80 µM; decane / 320 µM; octane /> 2000 µM. Typical working plasmid concentrations for gene delivery experiments being in the 50 µM range, the decane chain is a safe choice. The weakly basic nature of the cysteine ester primary amine function (pKa= 6.8) is insufficient for simultaneous DNA binding (which requires a protonated detergent) and reasonable thiol oxidation rates in slightly basic medium. The amine function was therefore converted into a highly basic guanidine which is known to interact strongly with DNA (C10 -CG+, Fig. 2).
(§1) i) c.m.c. of a detergent with C8, C10, C11 and C12 cysteine Measurement of the c.m.c. was acomplished with a Langmuir balance in a MES buffer (20 mM pH 6) containing 10 mM DTT. When representing the surface tension as a logarithmic function of the detergent concentration a break at the c.m.c. was observed (Fig. 10). Applying this method c.m.c.'s of the compounds having different chain length (C8, C10, C11, C12) were determined.

[2] = system: pCMV-luc plasmid DNA; test: Agarose gel electrophoresis: physical and chemical stability of the complexes; details: 1% agarose gel, 40 mM Tris-acetate buffer pH 8
Protocol: In a series of experiments, the reversibility of complex formation as well as the stability of complexed DNA towards degradation were assessed by electrophoresis (Fig. 5). […] Yet the cationic lipid/DNA particles could be destroyed either with excess sodium dodecyl sulfate detergent (SDS, lane 3) or by converting the lipid back to the original C10 -CG+ detergent with excess reducing dithiothreitol (DTT, lane 4). Serum nucleases present in cell culture medium rapidly degrade supercoiled plasmid DNA (lanes 1 and 8) into a smear of fragments with many nicks (lane 5).
1% agarose gel electrophoresis (90 min at 8 V/cm in 40 mM Tris-acetate buffer pH 8) of 20 µl samples containing 0.4 µg (lanes 1-4) or 0.2 µg (lanes 5-8) pCMV-luc plasmid DNA. Complexes were made by addition of a 100-fold concentrated C10 -C^G+ detergent solution (90 µM final concentration) to a solution of plasmid (60 µM) in HEPES buffer (15 mM, pH 7.4). The solution was gently mixed once and left to oxydize for 24 h. Lane 1: 60 µM plasmid DNA. Lane 2: 60 µM oxydized (C10 -C^G+)2/DNA complexes. Lane 3: as lane 2 in 3 mM final sodium dodecylsulfate before loading. Lane 4: as lane 2 in 6 mM dithiothreitol before loading. Lane 5: 60 µM plasmid incubated for 1 h at 37 °C with an equivalent volume of DMEM cell culture medium containing 10% serum. Lane 6: 60p µ M oxydized (C10 -C^G+)2/DNA complexes incubated as lane 5. […]

[3] = system: pCMVluc plasmid DNA; test: Oxidation rate of cysteine detergent into cystine lipid (free thiol, Ellman's reagent) with and without template DNA; details: 90 µM detergent, TrisHCl 15 mM pH 8.4 saturated with oxygen, with 60 µM plasmid DNA versus without
Protocol: Oxidative detergent dimerization was expected to be prone to a template effect of DNA (Fig. 1). Fast intra-complex reaction is a key aspect to formation of small and stable particles since extensive detergent dimerization into lipid prior to DNA binding would bring the system back to a classical cationic lipid/DNA complex formation/aggregation process. Enhanced air oxidation rate was indeed observed in the presence of DNA (Fig. 3).
The stock buffer solution (TrisHCl 15 mM pH 8.4) was saturated with oxygen by three vacuum/oxygen atmosphere cycles. C10 -C^G+ was injected from a concentrated stock solution to a final concentration of 90 µM. For each time point, a 0.5 ml aliquot was removed and mixed with 0.5 ml 2XEllman's reagent. The remaining free thiol was quantitated spectrophotometrically according to Riddles et al. (1979 ). For the template experiment, pCMVluc plasmid DNA was added to a final concentration of 60 µM before addition of the detergent.

[4] = system: calf thymus DNA; test: Determination of the c.m.c. with a Langmuir balance, buffer containing DNA; details: buffer containing calf thymus DNA at 30 µM bp
Protocol: as §1
ii) c.m.c. of C10 and C11 cysteine with and without DNA. In an analogous manner as above the c.m.c. value of C10 cysteine and C11 cysteine was determined, the buffer containing calf thymus DNA at a concentration of 30 µM bp (Fig. 11A, B).

[5] = system: calf thymus DNA; test: Determination of thiol functions of SC2 with Ellman's reagent during DNA complexation; details: after 10 min, no oxygen except that in the water
[6] = system: calf thymus DNA; test: UV spectroscopy of spermine or SC2 particles at raised NaCl concentration; details: 76 µM DNA bases; for absorption at 330 nm as compared to the maximum optical density at 25 mM NaCl: 65 mM SC2
Protocol: The characterisation of the formed particles by UV spectroscopy was performed for different reasons. DNA in solution has a characteristic absorption spectrum between 240 and 310 nm. The absorption (optical density) has a maximum at 260 nm and 0 towards 310 nm. A change in DNA conformation should change the profile of the absorption spectrum. Moreover, the formation of particles results in an enhancement of the diffusion which can be perceived in UV by an enhancement of optical density.
Calf thymus DNA was complexed with spermine under conditions optimal for obtaining toroid structures as described by Naroditsky et al. (76 µM DNA bases, 65 mM spermine, 25 mM NaCl).

`CCCCCCCCOC(=O)[C@@H](N)CS` [C8] gave a CMC [1] greater than 2000 µM and a c.m.c. [1] greater than 2000 µM.
In the case of `CCCCCCCCCCNC(=O)C(CS)NC(=N)N` (stereo not drawn) [C10 -CG+, Guanidyl-cysteine-decylamide], the “DNA migration / stability during electrophoresis” value [2] is reported as “unable to retard DNA migration” and the “oxydation rate into cystine lipid” value [3] is reported as “faster in the presence of template DNA”.
With `CCCCCCCCCCOC(=O)[C@@H](N)CS` [C10] the CMC [1] was 320 µM, the “CMC without DNA” value [1] was 320 µM and the c.m.c. [1] was 320 µM. The “CMC with DNA” value [4] was 50 µM.
For `CCCCCCCCCCCOC(=O)[C@@H](N)CS` [C11], the CMC [1] was 80 µM, the “CMC without DNA” value [1] was 80 µM and the c.m.c. [1] was 80 µM. For the same molecule, the “CMC with DNA” value [4] was 32 µM.
For `CCCCCCCCCCCCOC(=O)[C@@H](N)CS` [C12], the CMC [1] was 15 µM and the c.m.c. [1] was 15 µM.
In the case of `NC(CS)C(=O)NCCCNCCCCNCCCNC(=O)C(N)CS` (stereo not drawn) [SC2, spermine-N1, N12-bis-cysteineamide], the thiol groups oxydised [5] is reported as 50%, the “absorption at 330 nm as compared to the maximum optical density at 25 mM NaCl” value ([6]; at 100 mM NaCl, raised one and a half hours after mixing) is reported as 81% and the “absorption at 330 nm as compared to the maximum optical density at 25 mM NaCl” value ([6]; at 150 mM NaCl) is reported as 71%.
With `NCCCNCCCCNCCCN` [spermine, reference compound] the “observed UV spectrum after raising NaCl” value ([6]; NaCl raised to 100 mM, 65 mM spermine) was “identical with the spectrum of the DNA that had been observed before complexation with spermine”.
